Experiments:
[1] = tested on: Monocotyledonous and dicotyledonous test plants; assay: Example B2: post-emergence herbicidal action, 2 kg of AS/ha; type: in vivo; parameters: key: 1 = complete damage, 9 = no effect; conditions: 4- to 6-leaf stage, about 18 days, scale 1-9; for post-emergence action rating, Avena: test plant Avena; for post-emergence action rating, Setaria: test plant Setaria; for post-emergence action rating, Sinapis: test plant Sinapis; for post-emergence action rating, Solanum: test plant Solanum; for post-emergence action rating, Stellaria: test plant Stellaria
Protocol: Monocotyledonous and dicotyledonous test plants are grown in plastic pots with standard soil in a greenhouse and, in the 4- to 6-leaf stage, are sprayed with an aqueous suspension of the test substances of the formula 1, prepared from a 25% wettable powder (Example F3, b) according to WO 97134485) or with an emulsion of the test substances of the formula I, prepared from a 25% emulsion concentrate (Example F1, c) according to WO 97/34485), corresponding to a dosage of 2 kg of AS/ha (500 l of water/ha). The test plants are then grown further under optimum conditions in a greenhouse. After a test period of about 18 days, the test is evaluated with a nine-level scale of rating (1=complete damage, 9=no effect). Ratings of 1 to 4 (in particular 1 to 3) mean good to very good herbicidal action. In this test, the compounds of the formula I show strong herbicidal action.

[2] = tested on: Monocotyledonous and dicotyledonous test plants; assay: Example B1: pre-emergence herbicidal action, 2 kg of AS/ha; type: in vivo; conditions: 3 weeks, scale 1-9; for pre-emergence action rating, Avena: test plant Avena; for pre-emergence action rating, Cyperus: test plant Cyperus; for pre-emergence action rating, Setaria: test plant Setaria; for pre-emergence action rating, Sinapis: test plant Sinapis; for pre-emergence action rating, Solanum: test plant Solanum; for pre-emergence action rating, Stellaria: test plant Stellaria
Protocol: Monocotyledonous and dicotyledonous test plants are sown in standard soil in plastic pots. Immediately after sowing, the test substances are sprayed on (500 l of water/ha) as an aqueous suspension (prepared from a 25% wettable powder (Example F3, b) according to WO 97/34485) or emulsion (prepared from a 25% emulsion concentrate (Example F1, c)), corresponding to a dosage of 2 kg of AS/ha. The test plants are then grown under optimum conditions in a greenhouse. After a test period of 3 weeks, the test is evaluated with a nine-level scale of ratings (1=complete damage, 9=no effect). Ratings of 1 to 4 (in particular 1 to 3) mean good to very good herbicidal action.

Row | Structure (SMILES) | post-emergence action rating, Avena [1] | post-emergence action rating, Setaria [1] | post-emergence action rating, Sinapis [1] | post-emergence action rating, Solanum [1] | post-emergence action rating, Stellaria [1] | pre-emergence action rating, Avena [2] | pre-emergence action rating, Cyperus [2] | pre-emergence action rating, Setaria [2] | pre-emergence action rating, Sinapis [2] | pre-emergence action rating, Solanum [2] | pre-emergence action rating, Stellaria [2]
1 | COCCc1nc(C(F)(F)F)ccc1C(=O)C1=C(O)C2CCC(C2)C1=O (centres unmarked) [Compound 1.023] | 2 | 2 | 1 | 2 | 2 | 2 | 2 | 2 | 1 | 1 | 2
2 | CCN(CC)C(=O)OC1=C(C(=O)c2ccc(C(F)(F)F)nc2C)C(=O)C2CCC1C2 (centres unmarked) [Compound 1.41] | 1 | 1 | 1 | 1 | 1 | 2 | 1 | 1 | 1 | 1 | 1
3 | O=C(C1=C(O)C2CCC(C2)C1=O)c1ccc(C(F)(F)F)nc1C1CC1 (centres unmarked) [Compound 1.042] | 2 | 2 | 1 | 2 | 2 | 4 | 2 | 2 | 1 | 1 | 4
4 | COc1nc(C(F)(F)F)ccc1C(=O)C1=C(O)C2CCC(C2)C1=O (centres unmarked) [Compound 1.043] | 2 | 2 | 1 | 2 | 2 | 4 | 2 | 1 | 2 | 1 | 2
5 | Cc1nc(C(F)(F)C(F)(F)F)ccc1C(=O)C1=C(O)C2CCC(C2)C1=O (centres unmarked) [Compound 1.109] | 2 | 2 | 1 | 2 | 2 | 2 | 2 | 2 | 2 | 1 | 3
6 | Cc1nc(C(F)(F)Cl)ccc1C(=O)C1=C(O)C2CCC(C2)C1=O (centres unmarked) [Compound 1.195] | 2 | 2 | 1 | 2 | 2 | 2 | 1 | 1 | 1 | 1 | 2
7 | Cc1cc(C(=O)C2=C(O)C3CCC(C3)C2=O)c(C)nc1C(F)(F)F (centres unmarked) [Compound 1.313] | 2 | 2 | 1 | 2 | 2 | 3 | 1 | 2 | 1 | 1 | 2
8 | Cc1nc(C(F)(F)F)ccc1C(=O)C1=C([O-])C2CCC(C2)C1=O.[K+] (centres unmarked) [Compound 1.376] | 1 | 2 | 1 | 2 | 2 | 2 | 1 | 1 | 2 | 1 | 2
9 | Cc1nc(C(F)(F)F)ccc1C(=O)C1=C(Sc2ccccc2)C2CCC(C2)C1=O (centres unmarked) [Compound 1.381] | 2 | 2 | 2 | 2 | 2 | 4 | 1 | 2 | 2 | 1 | 1
10 | CC(=O)OC1=C(C(=O)c2ccc(C(F)(F)F)nc2C)C(=O)C2CCC1C2 (centres unmarked) [Compound 1.401] | 2 | 2 | 2 | 2 | 2 | 2 | 1 | 1 | 2 | 1 | 2
11 | Cc1nc(C(F)(F)F)ccc1C(=O)C1=C(OC(=O)c2ccccc2)C2CCC(C2)C1=O (centres unmarked) [Compound 1.402] | 2 | 2 | 1 | 2 | 2 | 2 | 1 | 1 | 2 | 1 | 2
12 | Cc1nc(C(F)(F)F)ccc1C(=O)C1=C(OC(=O)C2CC2)C2CCC(C2)C1=O (centres unmarked) [Compound 1.403] | 2 | 2 | 1 | 2 | 2 | 2 | 1 | 1 | 1 | 1 | 2
13 | CCC(=O)OC1=C(C(=O)c2ccc(C(F)(F)F)nc2C)C(=O)C2CCC1C2 (centres unmarked) [Compound 1.404] | 2 | 2 | 1 | 1 | 2 | 2 | 1 | 1 | 2 | 1 | 2
